For seven molecules, IC50 and ED50 results are on record in ChEMBL document CHEMBL1123025, “Acylmorphinans. A novel class of potent analgesic agents” (J Med Chem, 1985).

The target of one test is Opioid receptor (Rattus norvegicus, UniProt P33533+P34975+P33535). Kind of test: 50% Inhibition of stereospecific [3H]-naltrexone (10e-9 M) binding towards opiate receptor in rat brain homogenate. The class given is tissue-based.
The subject of test [1] is Mus musculus. Kind of test: Analgesic activity in mice after subcutaneous administration in writhing assay; 1.21-3.91. The class given is functional. To be noted: sc.
Test [2] deals with Mus musculus. The test is described as follows: Analgesic activity in mice after oral administration in writhing assay; 13.71-42.00. The class given is functional. (In general: Writhing tests count abdominal constrictions after an irritant is injected.)
Test [3] deals with Mus musculus. The test is described as follows: Analgesic activity in mice after oral administration in writhing assay; 0.70-2.80. The class given is functional.
The test system of test [4] is Mus musculus. Kind of test: Analgesic activity in mice after subcutaneous administration in writhing assay; 0.06-0.22. Particulars: sc. The format is functional.
The subject of test [5] is Mus musculus. Kind of test: Analgesic activity in mice after oral administration in tail-flicking assay; 7.22-10.25. The class given is functional.
The species entered for test [6] is Mus musculus. Kind of test: animal or person. Particulars: sc.
Description: Analgesic activity in mice after subcutaneous administration in writhing assay; 0.26-0.83
In test [7] the test system is Mus musculus. The test is described as follows: Analgesic activity in mice after subcutaneous administration in tail-flicking assay; activity value ranges from 3.0 - 5.4. The class given is functional. Particulars: sc.

With `CC(=O)c1ccc2c(c1)[C@@]13CCCC[C@H]1[C@@H](C2)N(CC1CC1)CC3.Cl`, the IC50 – broadly, the concentration that gives 50% inhibition – at Opioid receptor is 70 nM.

`CC(=O)c1ccc2c(c1)C[C@@H]1[C@@H]3CCCC[C@]23CCN1C` came in with an IC50 on Opioid receptor of 13000 nM.

`COc1ccc2c3c1O[C@H]1[C@@H](O)C=C[C@H]4[C@@H](C2)N(C)CC[C@@]341.COc1ccc2c3c1O[C@H]1[C@@H](O)C=C[C@H]4[C@@H](C2)N(C)CC[C@@]341.O.O=P(O)(O)O.O=P(O)(O)O` [CODEINE PHOSPHATE]: the ED50 – broadly, the dose that gives a 50% effect, or the effect in half of the subjects – in the test with Mus musculus [1] was 2.3 mg/kg; in the test on Mus musculus [2], 24 mg/kg.

Regarding `CN1CC[C@]23CCCC[C@H]2[C@H]1Cc1ccc(O)cc13` [LEVORPHANOL], the ED50 in the test with Mus musculus [3] worked out at 1.4 mg/kg; with Mus musculus [4], 0.11 mg/kg; in the test with Mus musculus [5], 8.5 mg/kg. The same molecule yielded an IC50 on Opioid receptor of 0.004 nM.

Consider `CN1CC[C@]23c4c5ccc(O)c4O[C@H]2[C@@H](O)C=C[C@H]3[C@H]1C5` [MORPHINE], for which the ED50 in the test listed under Mus musculus [6] was determined as 0.46 mg/kg.

Molecule `CC(O)c1ccc2c(c1)[C@@]13CCCC[C@H]1[C@@H](C2)N(C)CC3.Cl` (some centres not stated) returned an IC50 at Opioid receptor of 14 nM.

The molecule `CC(=O)c1ccc2c(c1)[C@@]13CCCC[C@H]1[C@@H](C2)N(C)CC3` returned an IC50 at Opioid receptor of 210 nM. In the test with Mus musculus [7], this molecule showed an ED50 of 4 mg/kg.
